Experimental data as given in ChEMBL document CHEMBL4130375, “Design, synthesis and biological evaluation of 4-amidobenzimidazole acridine derivatives as dual PARP and Topo inhibitors for cancer therapy” (Eur J Med Chem, 2017).

Legend:
HCT-116 = experiment: Potency index, ratio of m-AMSA IC50 to compound IC50 for human HCT116 cells expressing topoisomerase-1; assay type: functional
MCF7 [1] = experiment: Cell cycle arrest in human MCF7 cells after 24 hrs by propidium iodide staining based flow cytometry; assay type: functional
MCF7 [2] = experiment: Potency index, ratio of m-AMSA IC50 to compound IC50 for human MCF7 cells; assay type: functional
MCF7 [3] = experiment: Cell cycle arrest in human MCF7 cells assessed as accumulation at S phase at 5 uM after 24 hrs by propidium iodide staining based flow cytometry (reference value: 59.72 +/- 2.98%); assay type: functional
Cytochrome P450 3A4 = Cytochrome P450 3A4 (Homo sapiens, UniProt P08684); experiment: Inhibition of CYP3A4 in human liver microsomes preincubated for 10 mins followed by NADPH/substrate addition measured after 20 mins by LC-MS/MS analysis
Chain of Cytochrome P450 3A4 (P08684 whole entry): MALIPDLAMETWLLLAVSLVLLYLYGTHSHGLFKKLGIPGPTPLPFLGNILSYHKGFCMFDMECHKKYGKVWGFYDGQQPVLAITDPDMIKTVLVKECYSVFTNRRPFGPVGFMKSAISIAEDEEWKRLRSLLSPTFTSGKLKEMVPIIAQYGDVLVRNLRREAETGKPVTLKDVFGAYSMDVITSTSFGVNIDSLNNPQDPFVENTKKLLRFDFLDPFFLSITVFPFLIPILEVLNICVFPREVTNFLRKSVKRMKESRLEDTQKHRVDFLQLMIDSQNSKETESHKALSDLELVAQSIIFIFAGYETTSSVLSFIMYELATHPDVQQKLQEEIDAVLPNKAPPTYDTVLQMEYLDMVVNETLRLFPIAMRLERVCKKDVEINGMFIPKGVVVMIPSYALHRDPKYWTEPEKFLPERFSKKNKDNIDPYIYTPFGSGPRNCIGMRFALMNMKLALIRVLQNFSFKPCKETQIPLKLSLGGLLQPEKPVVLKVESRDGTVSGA

`Cc1cccc2c(Nc3cccc(-c4nc5c(C(N)=O)cccc5[nH]4)c3)c3ccccc3nc12` was tested, and the “Ratio IC50” value (HCT-116) was 2.7, the Activity (MCF7 [1]) was “Dose-dependent effect” and the “Ratio IC50” value (MCF7 [2]) was 4. For the same compound, the Activity (MCF7 [3]) was 42.32% and the IC50 (Cytochrome P450 3A4) was 6.8 µM.
